The values below come from patent US5925529A, “Method for discovery of peptide agonists” (The Regents of the University of California, priority 1995, dated 1999).

“Also recorded” adds a separate entry of the source.

In test [1] the target is T1, Human fMLF receptor (Homo sapiens, UniProt P21462).
T1 construct: expressed in transfected cells; host or cells: Xenopus laevis oocytes microinjected with cRNA
T1 sequence (P21462 1-350): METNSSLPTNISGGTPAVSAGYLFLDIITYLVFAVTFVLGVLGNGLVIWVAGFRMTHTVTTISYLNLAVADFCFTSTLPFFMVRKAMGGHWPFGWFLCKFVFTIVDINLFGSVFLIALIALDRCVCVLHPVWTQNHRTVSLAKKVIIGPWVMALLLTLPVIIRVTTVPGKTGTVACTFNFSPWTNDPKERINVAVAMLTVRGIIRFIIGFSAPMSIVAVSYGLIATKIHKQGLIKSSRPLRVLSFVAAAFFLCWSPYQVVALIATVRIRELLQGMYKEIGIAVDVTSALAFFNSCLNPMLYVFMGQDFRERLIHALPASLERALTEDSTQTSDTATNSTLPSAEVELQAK
The test can be described thus: Agonist-induced 45Ca release from Xenopus oocytes expressing the formyl peptide receptor. To be noted: Xenopus oocytes injected with human fMLF receptor cRNA; compared with fMLF (FIG. 2). It counts as cell-based. Here is the method:
Xenopus oocytes were harvested from female Xenopus laevis and processed using published techniques. Coleman, A., In Transcription and Translation: A Practical Approach, Oxford: IRL Press, pp. 271-302 (1984); Williams et al., PNAS 85: 4939-4943 (1988). To remove follicular cells, oocytes were incubated for 4 hr at room temperature with 1 mg/ml Sigma type II collagenase in modified Barth's solution (MBSH) without Ca^2+, then washed and incubated overnight at 18° C. in MBSH II (MBSH containing 1 mg/ml bovine serum albumin, 1 ml/ml Ficoll, 100 U/ml penicillin, 100 μg/ml streptomycin, and 50 μg/ml gentamicin). […]
Agonist-induced increases in ^45 Ca^2+ release were assessed by published techniques. […] The harvested medium was analyzed by scintillation counting to determine ^45 Ca^2+ release by the oocytes during each 10 min incubation. […] At this point, two additional 10 min collections were obtained, then medium including agonist was added and agonist-induced ^45 Ca^2+ release determined.
Formyl peptide receptor response to its classical agonist fMLF (SEQ ID NO:12) and to the new agonist derived from tethered ligand library. […] Xenopus oocytes were microinjected with 5 ng cRNA transcribed from this construct, cultured for 24 hours, and ^45 Ca release in response to the indicated concentration of peptides was measured as described above.

Test [2] has as its target T2, wild type human thrombin receptor (Homo sapiens, UniProt P25116).
T2 construct: expressed in transfected cells; host or cells: Xenopus laevis oocytes (cRNA)
T2 sequence (P25116 22-425): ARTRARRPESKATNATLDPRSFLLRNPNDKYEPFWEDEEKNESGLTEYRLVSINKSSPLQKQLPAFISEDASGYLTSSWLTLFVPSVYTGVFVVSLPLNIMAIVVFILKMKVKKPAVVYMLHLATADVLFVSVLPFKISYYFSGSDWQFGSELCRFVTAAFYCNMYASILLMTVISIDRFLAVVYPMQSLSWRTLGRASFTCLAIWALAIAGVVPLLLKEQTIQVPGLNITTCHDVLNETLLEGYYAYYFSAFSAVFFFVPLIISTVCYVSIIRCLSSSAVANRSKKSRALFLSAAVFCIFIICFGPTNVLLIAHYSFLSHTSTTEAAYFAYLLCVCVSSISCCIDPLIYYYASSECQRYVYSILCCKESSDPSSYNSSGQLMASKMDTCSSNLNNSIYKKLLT
Kind of test: Agonist-induced 45Ca release from Xenopus oocytes expressing the wild type thrombin receptor. It counts as cell-based. To be noted: Xenopus oocytes expressing epitope tagged wild type human thrombin receptor; compared with SFLLR peptide (FIG. 5A). Here is the method: (§1) Xenopus oocytes were harvested from female Xenopus laevis and processed using published techniques. Coleman, A., In Transcription and Translation: A Practical Approach, Oxford: IRL Press, pp. 271-302 (1984); Williams et al., PNAS 85: 4939-4943 (1988). To remove follicular cells, oocytes were incubated for 4 hr at room temperature with 1 mg/ml Sigma type II collagenase in modified Barth's solution (MBSH) without Ca^2+, then washed and incubated overnight at 18° C. in MBSH II (MBSH containing 1 mg/ml bovine serum albumin, 1 ml/ml Ficoll, 100 U/ml penicillin, 100 μg/ml streptomycin, and 50 μg/ml gentamicin). Dumont stage V oocytes were selected and microinjected with 5 to 50 nl of mRNA (1 μg/μl in 10 mM HEPES, pH 7.0). Microinjected oocytes were cultured for 24 hr at 18° C. in MBSH then selected for functional assays.
(§2) Agonist-induced increases in ^45 Ca^2+ release were assessed by published techniques. Williams et al., PNAS 85:4939-4943 (1988). […] The harvested medium was analyzed by scintillation counting to determine ^45 Ca^2+ release by the oocytes during each 10 min incubation. […] At this point, two additional 10 min collections were obtained, then medium including agonist was added and agonist-induced ^45 Ca^2+ release determined. […]

Test [3] has as its system uninjected oocytes. The test can be described thus: 45Ca release in uninjected Xenopus oocytes (control for receptor dependence). The class given is cell-based, Xenopus laevis. The procedure: as §1, §2
Test [4] has as its system formyl peptide receptor. To be noted: compared with f-MLF; cited from earlier work.

For GFIYF, the “agonist activity / signaling (45Ca release) at the formyl peptide receptor” value in test [1] is recorded as “did not cause signaling”. Moreover, the “agonist activity / signaling (45Ca release) at the thrombin receptor” value in test [2] is on record as “nearly as effective as the SFLLR; also recorded: receptor-dependent”. In addition, the “signaling (45Ca release) in uninjected oocytes” value in test [3] is on record as “did not cause signaling”.
On to MLF, for which the “activity of the unformylated peptide relative to f-MLF (fold less activity)” value in test [4] is reported as “at least 1000 fold”.
